Where two headings read alike, the source gives them in different places.
What was measured:
Type in all cases: cell-based, Hepatitis C virus
[1] = system: HCV 1aY93H mutant replicon; assay: HCV replicon assay, genotype 1a Y93H mutant
Method: General procedure: The luciferase replicon transient transfection assay measures the ability of a test compound to inhibit the replication of a transiently-transfected HCV luciferase-bearing wild-type or mutant replicon in cured human hepatoma cells (Huh7.5). The inhibition of HCV replication was measured by quantification of luciferase protein expression. This assay has been validated using a panel of genotype 1a and 1b replicons bearing mutations known to be associated with resistance to BMS-790052. Briefly, subconfluent Huh7.5 cells were electroporated with 10 μg of wild-type or mutant luciferase-bearing HCV replicon RNA. The cells were then seeded in 96-well opaque white plates at 3×10^4 cells/well in 150 μL/well and incubated for 4 hrs at 37° C./5% CO2. Ten 1:5 serial dilutions of each test compound were made in media (DMEM containing glucose, L-glutamine and sodium pyruvate, 10% fetal bovine serum, 100 IU/mL penicillin, 100 μg/mL streptomycin, 2 mM GlutaMAX, and 1×MEM non-essential amino acids (Mediatech, Inc. and Invitrogen Corp.)) at concentrations that were 4× higher than the final concentrations to be tested and 50 μL/well was added to the transfected cells. Untreated, mock-transfected cells served as a negative control of luciferase expression. The plates were incubated at 37° C./5% CO2 for 4 days whereupon the media was removed and 50 μL of ONE-glo luciferase substrate (Promega) was added to each well. The plates were agitated on a rotating platform at room temperature for 3 min and read in a Victor^3V microplate reader (Perkin-Elmer) using a 700 nm cut-off filter with a 1 sec read time. EC50 values were calculated from dose response curves from the resulting best-fit equations determined by Microsoft Excel and XLfit 4.1 software.

[2] = system: HCV 2b; assay: HCV replicon assay, genotype 2b
[3] = system: HCV genotype 3a NS5A within the 1b-replicon; assay: HCV replicon assay, genotype 3a (NS5A intergenotypic stable cell line)
From the text: The nucleotide sequences of the NS5A region of genotype 2a (GenBank Accession # AB047639), genotype 3a (GenBank Accession # D17763), and genotype 4a (GenBank Accession # DQ418788) were synthesized by an outside vendor. The NS5A region of each of these genotypes included the first 11 amino acids of the protease recognition sequence of genotype 1b, as well as the last 10 amino acids of genotype 1b. The NS5A gene cassettes were excised with site specific restriction endonucleases and ligated into a ZS11-luciferase genotype 1b backbone (backbone contains the genotype 1b NS3 protease, NS4a, NS4b, and NS5b coding regions) with similarly cut restriction enzyme sites. Thus, the newly constructed plasmid contains a genotype 2a-, 3a- or 4a-specific NS5A gene within the 1b-replicon.
These new intergenotypic plasmids were used to establish stable cell lines. RNA was generated from the NS5A intergenotypic plasmids and used in conjunction with a lipofectin reagent to transfect a cured Huh7 cell line. Transfected cells were selected for with G418. After selection has occurred the stable cell lines were propagated, tested for luciferase activity, and RT-PCR with genotype specific primers (either 1a, 2a, 3a, or 4a). Stable cell lines containing the intergenotypic replicon were then fully sequenced and analyzed for proper expression of NS3, NS5A and NS5B proteins.
Drug titration analysis was performed using the luciferase replicon assay described herein.
(§1) The HCV luciferase replicon assay measures the ability of a test compound to inhibit HCV replication in cell culture after 3 days of treatment in a human hepatoma cell line (Huh-7) bearing an HCV replicon containing a luciferase-neomycin phosphotransferase fusion gene. The inhibition of HCV replication was measured by quantification of luciferase protein expression. Briefly, Huh-7 cells containing either the HCV genotype 1a H77 strain or genotype 1b Con1 strain subgenomic luciferase replicon (H1a-luc or Zluc, respectively) were grown in DMEM containing glucose, L-glutamine and sodium pyruvate, 10% fetal bovine serum (FBS), 100 IU/mL penicillin, 100 μg/mL streptomycin, 2 mM GlutaMAX, non-essential amino acids and 0.25 (H1a-luc) or 0.5 (Zluc) mg/mL G418. GlutaMAX was obtained from Invitrogen, Corp.; all other media reagents were obtained from Mediatech, Inc. For dose-response testing, the cells were seeded in 96-well plates at 1×10^4 (H1a-luc) or 7.5×10^3 (Zluc) cells/well in a volume of 50 μL, and incubated at 37° C./5% CO2. Three hours after plating, 50 μL of ten 5-fold serial dilutions of compound were added, and cell cultures were incubated at 37° C./5% CO2 for 72 hours. In all cases, Huh-7 cells lacking the HCV replicon served as negative control. To assess luciferase expression, the media/compound was removed from the plates and ONE-glo Luciferase assay reagent (Promega) was added to each well. The assay plates were shaken for 3 minutes at room temperature and luciferase activity for each well was measured with a 1 sec read time on the Victor^3V multilabel counter using a 700 nm cut-off filter (Perkin Elmer). EC50 values were calculated from dose response curves from the resulting best-fit equations determined by Microsoft Excel and XLfit 4.1 software.

[4] = system: HCV genotype 1a H77 strain subgenomic luciferase replicon; assay: HCV replicon assay, genotype 1a
Method: as §1

[5] = Hepatitis C virus, read-out: 1aY93H IC50 (nM), HCV genotype 1a, Y93H mutant
[6] = read-out: 2b IC50, HCV genotype 2b
[7] = Hepatitis C virus, read-out: 3a IC50 (nM), HCV genotype 3a
[8] = Hepatitis C virus, read-out: 1a IC50 (nM), HCV genotype 1a
[9] = read-out: 1aY93H IC50, HCV genotype 1a, Y93H mutant
[10] = read-out: 3a IC50, HCV genotype 3a
[11] = read-out: 1a IC50, HCV genotype 1a
[12] = Hepatitis C virus, read-out: 2b IC50 (nM), HCV genotype 2b

Compound | IC50 [1, 5] [nM] | IC50 [4, 8] [nM] | IC50 [2, 12] [nM] | also measured
CCC1c2ccc(-c3cnc([C@@H]4CCCN4C(=O)[C@@H](NC(=O)OC)C(C)C)[nH]3)cc2Oc2ccc3cc(-c4cnc([C@@H]5CCCN5C(=O)[C@@H](NC(=O)OC)C(C)C)[nH]4)ccc3c21 (single isomer, unassigned) [Compound 5] | 11.7 | 0.005 |  | IC50 [2, 6]: 0.784 nM; IC50 [3, 7]: 1.08 nM
CCC1c2ccc(-c3cnc([C@@H]4CCCN4C(=O)[C@@H](NC(=O)OC)C(C)C)[nH]3)cc2Oc2ccc3cc(-c4cnc([C@@H]5CCCN5C(=O)[C@@H](NC(=O)OC)C(C)C)[nH]4)ccc3c21 (single isomer, unassigned) [Compound 6] |  |  |  | IC50 [1, 9]: 15 nM; IC50 [2, 6]: 12.8 nM; IC50 [3, 10]: 1.72 nM; IC50 [4, 11]: 0.0027 nM
CCC1c2ccc(-c3cnc([C@@H]4CCCN4C(=O)[C@@H](NC(=O)OC)C4CCOCC4)[nH]3)cc2Oc2ccc3cc(-c4cnc([C@@H]5CCCN5C(=O)[C@@H](NC(=O)OC)C5CCOCC5)[nH]4)ccc3c21 (single isomer, unassigned) [Compound 14] |  |  |  | IC50 [1, 9]: 0.221 nM; IC50 [3, 10]: 0.034 nM; IC50 [4, 11]: 0.0042 nM
O=c1c2ccc(-c3cnc([C@@H]4CC(F)CN4)[nH]3)cc2oc2ccc3cc(-c4cnc([C@@H]5C[C@@H](F)CN5)[nH]4)ccc3c12 (stereo in doubt) [Compound 18, 3-{2-[(2S,4R)-4-fluoropyrrolidin-2-yl]-1H-imidazol-5-yl}-9-{2-[(2S,4S)-4-fluoropyrrolidin-2-yl]-1H-imidazol-5-yl}-12H-benzo[a]xanthen-12-one] | 147 | 208 |  | 
O=c1c2cc(-c3cnc([C@@H]4CC(F)CN4)[nH]3)ccc2oc2c(F)c3ccc(-c4cnc([C@@H]5CC(F)CN5)[nH]4)cc3cc12 (stereo in doubt) [Compound 19, 6-fluoro-2,9-bis{2-[(2S,4S)-4-fluoropyrrolidin-2-yl]-1H-imidazol-5-yl}-12H-benzo[b]xanthen-12-one] | 1390 | 745 |  | 
CC(C)(C)NC(=O)N1CC(F)C[C@H]1c1ncc(-c2ccc3c(ccc4oc5cc(-c6cnc([C@@H]7C[C@@H](F)CN7C(=O)NC(C)(C)C)[nH]6)ccc5c(=O)c43)c2)[nH]1 (stereo in doubt) [Compound 21, (2S,4R,2′S,4′S)-2,2′-[(12-oxo-12H-benzo[a]xanthene-3,9-diyl)bis(1H-imidazole-5,2-diyl)]bis(N-tert-butyl-4-fluoropyrrolidine-1-carboxamide)] | 96.2 | 63.1 | 505 | 
CC(C)(C)OC(=O)N1CC(F)C[C@H]1c1ncc(-c2ccc3c(ccc4oc5cc(-c6cnc([C@@H]7C[C@@H](F)CN7C(=O)OC(C)(C)C)[nH]6)ccc5c(=O)c43)c2)[nH]1 (stereo in doubt) [Compound 22, di-tert-butyl (2S,4R,2′S,4′S)-2,2′-[(12-oxo-12H-benzo[a]xanthene-3,9-diyl)bis(1H-imidazole-5,2-diyl)]bis(4-fluoropyrrolidine-1-carboxylate)] | 717 | 291 |  | 
CC(C)(C)NC(=O)N1CC(F)C[C@H]1c1ncc(-c2ccc3c(F)c4oc5ccc(-c6cnc([C@@H]7CC(F)CN7C(=O)NC(C)(C)C)[nH]6)cc5c(=O)c4cc3c2)[nH]1 (stereo in doubt) [Compound 23, (2S,4S,2′S,4′S)-2,2′-[(6-fluoro-12-oxo-12H-benzo[b]xanthene-2,9-diyl)bis(1H-imidazole-5,2-diyl)]bis(N-tert-butyl-4-fluoropyrrolidine-1-carboxamide)] | 436 | 53.5 | ≥ 1000 | 
CC(C)(C)OC(=O)N1CC(F)C[C@H]1c1ncc(-c2ccc3c(F)c4oc5ccc(-c6cnc([C@@H]7CC(F)CN7C(=O)OC(C)(C)C)[nH]6)cc5c(=O)c4cc3c2)[nH]1 (stereo in doubt) [Compound 24, di-tert-butyl (2S,4S,2′S,4′S)-2,2′-[(6-fluoro-12-oxo-12H-benzo[b]xanthene-2,9-diyl)bis(1H-imidazole-5,2-diyl)]bis(4-fluoropyrrolidine-1-carboxylate)] | 2460 | 425 |  | 
COC(=O)N[C@H](C(=O)N1CCC[C@@H]1c1ncc(-c2ccc3oc4c(ccc5cc(-c6cnc([C@H]7CCCN7C(=O)[C@H](NC(=O)OC)C(C)C)[nH]6)ccc54)c(=O)c3c2)[nH]1)C(C)C [Compound 1, methyl [(1R)-1-({(2R)-2-[5-(9-{2-[(2R)-1-{(2S)-2-[(methoxycarbonyl)amino]-3-methylbutanoyl}pyrrolidin-2-yl]-1H-imidazol-5-yl}-7-oxo-7H-benzo[c]xanthen-3-yl)-1H-imidazol-2-yl]pyrrolidin-1-yl}carbonyl)-2-methylpropyl]carbamate] | 66 | 0.0204 |  | 
COC(=O)N[C@H](C(=O)N1CCC[C@H]1c1ncc(-c2ccc3c(c2)C(C)c2ccc4cc(-c5cnc([C@@H]6CCCN6C(=O)[C@@H](NC(=O)OC)C(C)C)[nH]5)ccc4c2O3)[nH]1)C(C)C (stereo partly drawn) [Compound 4, methyl [(1S)-1-({(2S)-2-[5-(3-{2-[(2S)-1-{(2S)-2-[(methoxycarbonyl)amino]-3-methylbutanoyl}pyrrolidin-2-yl]-1H-imidazol-5-yl}-7-methyl-7H-benzo[c]xanthen-9-yl)-1H-imidazol-2-yl]pyrrolidin-1-yl}carbonyl)-2-methylpropyl]carbamate] | 48.8 | 0.0057 |  | 
COC(=O)N[C@H](C(=O)N1CCC[C@H]1c1ncc(-c2ccc3c(c2)Oc2ccc4cc(-c5cnc([C@@H]6CCCN6C(=O)[C@@H](NC(=O)OC)C(C)C)[nH]5)ccc4c2C3(C)C)[nH]1)C(C)C [Compound 7, methyl [(1S)-1-({(2S)-2-[5-(3-{2-[(2S)-1-{(2S)-2-[(methoxycarbonyl)amino]-3-methylbutanoyl}pyrrolidin-2-yl]-1H-imidazol-5-yl}-12,12-dimethyl-12H-benzo[a]xanthen-9-yl)-1H-imidazol-2-yl]pyrrolidin-1-yl}carbonyl)-2-methylpropyl]carbamate] | 17.8 | 0.0029 | 11 | 
CCC1(CC)c2ccc(-c3cnc([C@@H]4CCCN4C(=O)[C@H](NC(=O)OC)C(C)C)[nH]3)cc2Oc2ccc3cc(-c4cnc([C@@H]5CCCN5C(=O)[C@@H](NC(=O)OC)C(C)C)[nH]4)ccc3c21 [Compound 8, methyl [(1R)-1-({(2S)-2-[5-(12,12-diethyl-3-{2-[(2S)-1-{(2S)-2-[(methoxycarbonyl)amino]-3-methylbutanoyl}pyrrolidin-2-yl]-1H-imidazol-5-yl}-12H-benzo[a]xanthen-9-yl)-1H-imidazol-2-yl]pyrrolidin-1-yl}carbonyl)-2-methylpropyl]carbamate] | 4.1 | 0.002 | 3.33 | IC50 [3, 7]: 0.581 nM

Reference: patent US10787441B2, “Hepatitis C virus inhibitors” (priority 2016, dated 2020)
